US6689742B1, “NY-ESO-1 peptide derivatives, and uses thereof” (Chancellors, Masters and Scholars of the University of …, priority 2000, dated 2004)

Legend:
clonal CTLs = assay: recognition of peptide-pulsed T2 cells by clonal CTLs, 51Cr release; assay type: cell-based, human; conditions: T2 cells pulsed with varying concentrations of peptide
Procedure: Varying concentrations of peptide were used to pulse T2 cells. […] The same ^51Cr release assay described supra was used. Prior to testing the CTLs, these were assayed to determine if they each expressed a single T cell receptor.

[1] = tested on: HLA-A2 restricted NY-ESO-1 specific CTLs (CTL NW38-IVS-1); assay: 51Cr release cytotoxicity assay, peptide-pulsed T2 cells with CTL NW38-IVS-1; assay type: cell-based, human; conditions: 10 ug/ml peptide, effector/target ratio 90:1, four hours
Procedure: Samples of T2 cells were labelled with 100 uCi of Na(^51Cr)O4, using standard methods, and were then washed three times, followed by incubation with 10 ug/ml peptide and 2.5 ug/ml of β2-microglobulin. Incubation was for one hour, at room temperature. Then responder cells (100 ul of a suspension of CTL NW38-IVS-1) were added, at an effector/target ratio of 90:1, and incubated for four hours in a water saturated atmosphere, with 5% CO2, at 37° C. Then, plates were centrifuged at 200×g for five minutes, 100 ul of supernatant was removed, and radioactivity was measured. The percentage of ^51Cr release was determined in accordance with known strategies.

[2] = tested on: ESO1 specific CTL clone ESO5; assay: recognition by specific CTLs, 51Cr release from peptide-pulsed T2 cells; assay type: cell-based, human; conditions: for EC50: T2 targets, CTL clone ESO5, lymphocyte:target ratio 30:1, 4 hours, read-out: Peptide ([nM] 50%), concentration giving 50% maximal activity; for Relative antigenic activity: [nM] 50% of SEQ ID NO: 2 divided by [nM] 50% of test peptide
Procedure: As indicated, supra, the peptides described herein were tested for recognition by specific CTLs. In these experiments, target T2 cells were labelled with ^51Cr for 1 hour, at 37° C., and then washed two times. Sample (1000 labelled cells in 50 μl) were then incubated with varying concentrations of peptide, for 15 minutes. Effector cells (50 μl) were then added. These effector cells are ESO1 specific CTL clone ESO5. The lymphocyte: target ratio was 30:1. Chromium release was measured after 4 hours of incubation at 37° C., by testing 100 μl supernatant samples.
Specific percent lysis was calculated as: [formula]

HLA-A*0201 molecules = HLA-A*0201 molecules (Homo sapiens, UniProt P04439, D140Y/D185E/D98H/E176V/E277Q/G131W/G231S/I119V/I121R/I166T/I218V/L300P/L318F/N151K/N90K/P208A/P217A/Q86G/Q94H/R138H/R169H/T345S); assay: functional competition binding assay (inhibition of lysis of SEQ ID NO: 4 pulsed T2 cells by CTL clone LAU 132/2)
Procedure: The functional competition binding assay employed is that taught by Valmori, et al., J. Immunol 161:6956-6962 (1998), incorporated by reference, but elaborated upon herein.
(SEQ ID NO: 4) is known to bind to HLA-A*0201 molecules, and to provoke lysis by an HLA-A*0201 restricted CTL clone, known as LAU 132/2. […] T2 cells were labelled with ^51Cr, in the presence of anti class I monoclonal antibody W6/32. […] Then, a suboptimal dose (1 nM) of SEQ ID NO: 4 (50 μl) were added, together with 50 μl of the T cells (5000 cells/well). ^51Cr release was measured after 4 hours incubation at 37° C. […] In order to facilitate the comparison, relative competitive activity of each peptide was calculated as [nM] […] 50% value determined for the test peptides.

[3] = tested on: NA8-MEL (A2+, NY-ESO-1-) cells; assay: 51Cr release assay, CTL ESO5 on A2+ melanoma cell lines with or without peptide; assay type: cell-based, human; conditions: exogenously added peptide; not lysed when absent
Procedure: Cell lines NA8-MEL (A2^+, NY-ESO-1^−), SK-MEL37 (A2^+, NY-ESO-1^+), and Me 275 (A2^+, NY-ESO-1^+) were tested, in ^51Cr release assays, as described supra.

[4] = tested on: SEQ ID NO: 2 specific CTLs; assay: killing specificity of tetramer-sorted CTLs, 51Cr release; assay type: cell-based, human; conditions: 1 μM peptide, effector/target ratios 1:1 and 0.3:1; unpulsed T2 not killed
Procedure: These tetramers were then used to stain a sample of cells taken from a patient who had been diagnosed previously as having a NY-ESO-1 positive melanoma. See Dunbar, et al., J. Immunol 162(12):6959-62(1999) and Ser. No. 09/049,850, filed Mar. 27, 1998, incorporated by reference. In brief, however, peripheral blood lymphocyte (“PBL”) samples were stained with tetramers for 15 minutes at 37° C., followed by washing in PBS/1% FCS at 37° C., followed by incubation with a labelled, anti-CD8 antibody for 30 minutes, on ice. The cells were then washed three times, in ice cold PBS/1% FCS, and were then analyzed via flow cytometry.
The CTLs described supra were then tested for killing specificity. […] Killing was determined using the ^51Cr release assay described supra.

CTLs = assay: 51Cr release assay in presence of reducing agent (DTT or TCEP); assay type: cell-based, human; conditions: 200 μM DTT or TCEP
[5] = tested on: NY-ESO-1 specific T cells (tumor infiltrating lymphocytes); assay: IFN-γ ELISPOT of short term tumor infiltrating lymphocyte culture with T2 cells plus peptide; assay type: cell-based, human; conditions: 1 μM peptide, 2×10^3 cultured cells/well, 5×10^4 T2 cells/well; control cultures 19 spots
Excerpt: Samples of lymph nodes or metastatic lesions were taken from a patient who presented slowly progressive melanoma with recurrent metastases, all of which were localized to the same paravertebral region. […] Further, the patient's serum indicated high titer of anti-NY-ESO-1 antibodies.
The surgically resected lymph nodes or metastatic lesions were finely minced in sterile, RPMI 1640 medium that had been supplemented with 10% fetal calf serum. Suspensions of cells were placed in 24-well tissue culture plates, in 2 ml of Iscove's Dulbecco medium, supplemented with 0.24 mM Asn, 0.55 mM Arg, 1.5 mM Gln, 10% pooled human A+ serum, 100 U/ml IL-2, and 10 ng/ml of IL-7. The cells were cultured for 2-3 weeks, prior to being assayed via IFN-γ ELISPOT, in accordance with Czerkinsky, et al, J. Immunol. Meth 110:29 ([…]), incorporated by reference. In brief, 2×10^3 cells/well of the short term culture referred to supra were combined with either 5×10^4 T2 cells/well, or the same number of T2 cells, plus 1 μM of one of SEQ ID NOS: 1-3. Each culture was run in duplicate.

[6] = tested on: NY-ESO-1 157-165 specific CTLs; assay: CTL assays of modified peptides; assay type: cell-based, human
Procedure: All of these peptides were tested in CTL assays of the type described supra.

Substance: 157-164: a peptide consisting of the first 8 amino acids of SEQ ID NO: 11 (SLLMWITQ; listed as Homo sapiens)
- recognition by all T cells (clonal CTLs) (clonal CTLs): failed to recognize

Substance: QLSLLMWIT [SEQ ID NO: 3, natural NY-ESO-1 peptide]
- recognition by all T cells (clonal CTLs) (clonal CTLs): recognized
- stimulation of HLA-A2 restricted NY-ESO-1 specific CTLs (51Cr release) [1]: three best stimulators
- EC50 [2]: 50 nM
- Relative antigenic activity [2]: 0.012
- fold less efficient competitor than SEQ ID NO: 4 (HLA-A*0201 molecules): 100 fold

Substance: SLLMWITQC [SEQ ID NO: 2, natural NY-ESO-1 peptide, parental peptide]
- recognition by all T cells (clonal CTLs) (clonal CTLs): recognized
- lysis of NA8-MEL by CTL ESO5 when peptide added [3]: lysed
- stimulation of HLA-A2 restricted NY-ESO-1 specific CTLs (51Cr release) [1]: three best stimulators
- killing of peptide-pulsed T2 cells by CTLs [4]: killed
- recognition by CTL, in words ([2]; CTL clone ESO5, compared with parental peptide SEQ ID NO: 2): optimally recognized antigenic peptide
- EC50 [2]: 0.6 nM
- increase of antigenicity in the presence of reducing agent (CTLs): 10 fold
- mean number of spots (IFN-γ ELISPOT) [5]: 424 spots

Substance: SLLMWITQCF (listed as Homo sapiens) [SEQ ID NO: 11]
- recognition by all T cells (clonal CTLs) (clonal CTLs): recognized

Substance: SLLMWITQCFL [SEQ ID NO: 1, natural NY-ESO-1 peptide]
- recognition by all T cells (clonal CTLs) (clonal CTLs): failed to recognize
- stimulation of HLA-A2 restricted NY-ESO-1 specific CTLs (51Cr release) [1]: three best stimulators
- EC50 [2]: 50 nM
- Relative antigenic activity [2]: 0.012
- mean number of spots (IFN-γ ELISPOT) [5]: 396 spots

Substance: SLLMWITQCI (Mutagen 10 Synthesized. At position 10 of SEQ ID NO 11, Phe is replaced by Ile) [SEQ ID NO: 14]
- recognition compared to SEQ ID NO: 2, in words [6]: recognized more efficiently

Substance: SLLMWITQI (Mutagen 9 Synthesized. At position 9, of SEQ ID NO2,Cys is replaced by Ile) [SEQ ID NO: 12]
- increase of recognition by NY-ESO-1 157-165 specific CTLs as compared to SEQ ID NO: 2 [6]: about 1000 fold

Substance: SLLMWITQL [SEQ ID NO: 7]
- increase of recognition by NY-ESO-1 157-165 specific CTLs as compared to SEQ ID NO: 2 [6]: about 1000 fold
- EC50 [2]: 0.01 nM
